Assay: i.v. administration of 0.5 mg MENT (reference for bioavailability)
Type: in vivo
Details: after i.v. admin. of 0.5 mg MENT

With C[C@@H]1CC2=CC(=O)CC[C@@H]2[C@H]2CC[C@]3(C)[C@@H](O)CC[C@H]3[C@@H]21 [MENT, 7α-methyl-19-nortestosterone] the “AUC(0-tlast) geomean dose-normalized” value was 4.98 ng·h/mL.

Source: US9763960B2, “Wafer comprising steroid hormones” (LTS Lohmann Theraple-Systeme AG, priority 2005, dated 2017)
